Experimental data as given in patent US8912184B1, “Therapeutic and diagnostic methods” (Alzheimer's Institute of America, Inc., priority 2010, dated 2014).
pIC50: −log10 of the molar value. Like-named read-outs stand apart in the source and are kept apart here.

System: HCT116 cells
Experiment: Nicotinic Acid Rescue Cytotoxicity Assay, first method: cytotoxicity to HCT116 cells in presence and absence of 10 μM nicotinic acid
Assay type: cell-based
Conditions: Homo sapiens, HCT-116, 72 h
Protocol: Additionally, Nicotinic Acid (NA) rescue of cytotoxicity of Nampt inhibitors was assessed by two distinct methods. In the first method, Nampt1 inhibitor cytotoxicity was evaluated in the presence and absence of exogenous nicotinic acid (NA) at a fixed concentration. […] Twenty four hours after cells were plated, the media was removed and replaced with media containing 10 μM nicotinic acid. Compounds were then immediately added. Cell viability was then assessed at 72 h.
Using the first of the two assays described above, the 90 compounds shown in Table 5, below, were tested for cytotoxicity towards Naprt1-proficient HCT116 cells, and for the ability of NA to block the observed cytotoxicity (or “rescue” the cells from the cytotoxic activity of the tested compound). The compounds listed are referred to by a unique rescue analysis example number (i.e., R1, R2 . . . R90) that is used as a reference number in Table 4, in which the results of the cytotoxicity and rescue assays are presented.

[1] = absence of nicotinic acid, read-out: HCT116 72 h cytotoxicity
[2] = presence of 10 μM nicotinic acid, read-out: HCT116 72 h cytotoxicity with 10 μM Nicotinic Acid

SMILES | pIC50 [1] | pIC50 [2]
O=C(Nc1ccc(C(=O)NCc2cccnc2)cc1)Nc1ccccc1-c1ccccc1 [Example R11, 4-[(Biphenyl-2-ylcarbamoyl)amino]-N-(pyridin-3-ylmethyl)benzamide] | 6.37 | < 4.30
O=C(NCc1cccnc1)Nc1ccc(COc2ccccc2-c2cccc(F)c2)cc1 [Example R82, 1-(4-{[(3′-Fluorobiphenyl-2-yl)oxy]methyl}phenyl)-3-(pyridin-3-ylmethyl)urea] | 8.72 | < 5.30
O=C(NCc1ccc(NS(=O)(=O)c2ccccc2-c2ccccc2)cc1)Nc1ccncc1 [Example R65, N-(4-{[(pyridin-4-ylcarbamoyl)amino]methyl}phenyl)biphenyl-2-sulfonamide] | 9.30 | < 6.00
O=C(NCc1cccnc1)c1ccc(NCc2ccccc2-c2cccc(C(F)(F)F)c2)cc1 [Example R29, N-(Pyridin-3-ylmethyl)-4-({[3′-(trifluoromethyl)biphenyl-2-yl]methyl}amino)benzamide] | 4.99 | 4.60
O=C(NCc1cccnc1)Nc1ccc(NS(=O)(=O)c2ccc(Cl)cc2Cl)cc1 [Example R75, 2,4-dichloro-N-(4-{[(pyridin-3-ylmethyl)carbamoyl]amino}phenyl)benzene-sulfonamide] | 7.52 | < 5.30
C#CCN(Cc1cc2c(=O)n(C)c(CN3CCN(C)CC3)nc2cc1Cl)c1ccc(C(=O)NCc2ccccn2)cc1 [Example R4, 4-[({7-Chloro-3-methyl-2-[(4-methylpiperazin-1-yl)methyl]-4-oxo-3,4-dihydroquinazolin-6-yl}methyl)(prop-2-yn-1-yl)amino]-N-(pyridin-2-ylmethyl)benzamide] | 6.56 | < 5.00
O=C(NCc1cccnc1)Nc1ccc(NS(=O)(=O)c2ccccc2)cc1 [Example R32, N-(4-{[(Pyridin-3-ylmethyl)carbamoyl]amino}phenyl)benzene-sulfonamide] | 6.71 | < 4.30
O=C(/C=C/c1cccnc1)NCCCCC1CCN(C(=O)c2ccccc2)CC1 [Example R3, (2E)-N-[4-(1-Benzoylpiperidin-4-yl)butyl]-3-(pyridin-3-yl)prop-2-enamide] | 8.85 | < 5.00
O=C(CN1CCCc2ccccc21)Nc1ccc(C(=O)NCc2cccnc2)cc1 [Example R17, 4-[(3,4-Dihydroquinolin-1(2H)-ylacetyl)amino]-N-(pyridin-3-ylmethyl)benzamide] | 5.69 | < 4.30
O=C(NCc1cccnc1)Nc1ccc(NS(=O)(=O)c2cc(C(F)(F)F)ccc2Br)cc1 [Example R57, 2-Bromo-N-(4-{[(pyridin-3-ylmethyl)carbamoyl]amino}phenyl)-5-(trifluoromethyl)benzenesulfonamide] | 9.30 | < 5.00
O=C(NCCc1cccnc1)c1ccc(NCc2ccccc2Br)cc1 [Example R34, 4-[(2-Bromobenzyl)amino]-N-[2-(pyridin-3-yl)ethyl]benzamide] | 5.94 | < 4.30
Cc1cnccc1N/C(=N/C#N)NCCCCCCOc1ccc(Cl)cc1 [Example R38, 1-[6-(4-Chlorophenoxy)hexyl]-2-cyano-3-(3-methylpyridin-4-yl)guanidine] | 8.85 | < 5.00
O=C(Nc1ccc(C(=O)NCc2cccnc2)cc1)Nc1cc(C(F)(F)F)cc(C(F)(F)F)c1 [Example R14, 4-({[3,5-Bis(trifluoromethyl)phenyl]carbamoyl}amino)-N-(pyridin-3-ylmethyl)benzamide] | 5.13 | 4.67
O=C(NCc1cccnc1)Nc1ccc(C(=O)Nc2ccccc2-c2ccccc2)cc1 [Example R58, N-(biphenyl-2-yl)-4-{[(pyridin-3-ylmethyl)carbamoyl]amino}benzamide] | 8.80 | < 5.00
O=C(NCc1cccnc1)c1ccc(NC(=S)Nc2cccc(OCc3ccccc3)c2)cc1 [Example R15, 4-({[3-(Benzyloxy)phenyl]carbamothioyl}amino)-N-(pyridin-3-ylmethyl)benzamide] | 5.33 | < 4.30
O=C(NCc1cccnc1)Nc1ccc(NCc2ccccc2Cl)cc1 [Example R31, 1-{4-[(2-Chlorobenzyl)amino]phenyl}-3-(pyridin-3-ylmethyl)urea] | 5.90 | < 4.30
CC(C)=CCN(Cc1cc2c(=O)n(C)c(C)nc2cc1Cl)c1ccc(C(=O)NCc2cccnc2)cc1 [Example R51, 4-{[(7-Chloro-2,3-dimethyl-4-oxo-3,4-dihydroquinazolin-6-yl)methyl](3-methylbut-2-en-1-yl)amino}-N-(pyridin-3-ylmethyl)benzamide] | 8.02 | < 5.00
Cc1c(COc2ccc(C(=O)NCc3cccnc3)cc2)cccc1C(F)(F)F [Example R24, 4-{[2-Methyl-3-(trifluoromethyl)benzyl]oxy}-N-(pyridin-3-ylmethyl)benzamide] | 4.92 | 4.35
CCOc1ccccc1NCC(=O)Nc1ccc(C(=O)NCc2cccnc2)cc1 [Example R21, 4-{[N-(2-Ethoxyphenyl)glycyl]amino}-N-(pyridin-3-ylmethyl)benzamide] | 6.36 | < 4.30

SMILES | pIC50 [1] | pIC50 [2]
N#C/N=C(/NCc1ccc(NS(=O)(=O)c2ccccc2-c2ccccc2)cc1)Nc1ccncc1 [Example R59, N-(4-{[N″-cyano-N′-(pyridin-4-yl)carbamimidamido]methyl}phenyl) biphenyl-2-sulfonamide] | 9.22 | < 5.30
O=C(NCc1cccnc1)Nc1ccc(COc2ccccc2-c2ccsc2)cc1 [Example R80, 1-(Pyridin-3-ylmethyl)-3-(4-{[2-(thiophen-3-yl)phenoxy]methyl}phenyl)urea] | 9.05 | < 5.30
O=C(NCc1cccnc1)c1ccc(NCc2ccccc2OC(F)(F)F)cc1 [Example R8, N-(Pyridin-3-ylmethyl)-4-{[2-(trifluoromethoxy)benzyl]amino}benzamide] | 5.50 | < 5.00
O=C(NCc1cccnc1)Nc1ccc(NS(=O)(=O)c2ccc(F)cc2Br)cc1 [Example R62, 2-bromo-4-fluoro-N-(4-{[(pyridin-3-ylmethyl)carbamoyl]amino}phenyl)benzene-sulfonamide] | 7.89 | < 6.00
N#C/N=C(\NCCCCCCOc1ccc(Cl)cc1)Nc1ccc(Br)nc1 [Example R36, 1-(6-Bromopyridin-3-yl)-2-[6-(4-chlorophenoxy)hexyl]-3-cyanoguanidine] | 5.22 | < 5.00
O=C(NCc1cccnc1)Nc1ccc(OCc2ccccc2-c2ccccc2)cc1 [Example R77, 1-[4-(biphenyl-2-ylmethoxy)phenyl]-3-(pyridin-3-ylmethyl)urea] | 8.77 | < 5.30
C#CCN(Cc1ccccc1-c1ccccc1)c1ccc(C(=O)NCc2cccnc2)cc1 [Example R9, 4-[(Biphenyl-2-ylmethyl)(prop-2-yn-1-yl)amino]-N-(pyridin-3-ylmethyl)benzamide] | 7.38 | 4.92
O=C(NCc1cccnc1)Nc1ccc(NS(=O)(=O)c2cc(C(F)(F)F)ccc2C(F)(F)F)cc1 [Example R67] | 9.52 | < 6.00
O=C(NCc1cccnc1)Nc1ccc(NS(=O)(=O)c2cc(C(F)(F)F)ccc2Cl)cc1 [Example R69, 2-chloro-N-(4-{[(pyridin-3-ylmethyl)carbamoyl]amino}phenyl)-5-(trifluoromethyl)benzenesulfonamide] | 8.89 | < 6.00
O=C(NCc1cccnc1)Nc1ccc(NS(=O)(=O)c2cc(Cl)ccc2Cl)cc1 [Example R74, 2,5-dichloro-N-(4-{[(pyridin-3-ylmethyl)carbamoyl]amino}phenyl)benzene-sulfonamide] | 8.64 | < 5.30
N#C/N=C(/NCCCCCCOc1ccc(Cl)cc1)Nc1ccncc1 [Example R5, 1-[6-(4-Chlorophenoxy)hexyl]-2-cyano-3-pyridin-4-ylguanidine] | 8.80 | < 5.00
O=C(NCc1cccnc1)c1ccc(NNc2ccc(C(=O)NCc3cccnc3)cc2)cc1 [Example R7, 4,4′-Hydrazine-1,2-diylbis[N-(pyridin-3-ylmethyl)benzamide]] | 8.06 | 4.66
CC(C)c1ccccc1NCC(=O)Nc1ccc(C(=O)NCc2cccnc2)cc1 [Example R22] | 6.52 | < 4.30
O=C(NCc1cccnc1)Nc1ccc(NS(=O)(=O)c2ccccc2-c2ccn[nH]2)cc1 [Example R88, 2-(1H-Pyrazol-5-yl)-N-(4-{[(pyridin-3-ylmethyl)carbamoyl]amino}phenyl)benzene-sulfonamide] | 8.60 | < 5.30
C#CCN(Cc1cc2c(=O)n(C)c(CN3CCN(C)CC3)nc2cc1Cl)c1ccc(C(=O)NCc2cccnc2)cc1 [Example R1] | 9.15 | < 5.00
CCn1cc(-c2ccccc2S(=O)(=O)Nc2ccc(NC(=O)NCc3cccnc3)cc2)cn1 [Example R89, 2-(1-Ethyl-1H-pyrazol-4-yl)-N-(4-{[(pyridin-3-ylmethyl)carbamoyl]amino}phenyl)benzene-sulfonamide] | 7.47 | < 5.30
O=C(NCc1cccnc1)Nc1ccc(COc2ccccc2-c2cccnc2)cc1 [Example R83, 1-(Pyridin-3-ylmethyl)-3-(4-{[2-(pyridin-3-yl)phenoxy]methyl}phenyl)urea] | 8.82 | < 5.30
O=C(NCc1cccnc1)Nc1ccc(NS(=O)(=O)c2cc(C(F)(F)F)ccc2F)cc1 [Example R72, 2-fluoro-N-(4-{[(pyridin-3-ylmethyl)carbamoyl]amino}phenyl)-5-(trifluoromethyl)benzenesulfonamide] | 7.82 | < 5.30
